This is an account of results in patent US20210275518A1, “METHODS OF USING REBASTINIB IN THE TREATMENT OF DISORDERS” (Deciphera Pharmaceuticals, LLC, priority 2020, published 2021).

The subject of one data set is mesothelioma. Nature of the data set: Phase 1b/2 rebastinib + paclitaxel, Part 1 patient with mesothelioma. The data set is classed as in vivo, human. The settings on record: one patient; 50 mg BID rebastinib + paclitaxel 80 mg/m^2, reduced at Cycle 4 to 25 mg BID + 60 mg/m^2; two prior lines carboplatin and alimta; Cycle 8, Day 1. Here is the method: The study consists of two parts (Part 1 and Part 2). In Part 1, patients were assigned to one of two pre-defined dose levels of rebastinib (50 or 100 mg BID) in combination with paclitaxel administered by intravenous (IV) infusion at 80 mg/m^2. Paclitaxel is to be administered by IV infusion at 80 mg/m^2 over approximately 60 minutes on Day 1, Day 8 and Day 15 of repeated 28-day cycles. Rebastinib is to be administered orally prior to the paclitaxel infusion.
Part 1 included treatment of a patient with mesothelioma with 50 mg BID rebastinib and paclitaxel at 80 mg/m^2. The patient had two prior lines of treatment with carboplatin and alimta.

The test system of data set [1] is Low Passage Champions TUMORGRAFT Models of Human Mesothelioma. As to the kind of experiment: Preclinical rebastinib/carboplatin combination efficacy in mesothelioma PDx models. The format is in vivo, immunocompromised mice. The settings on record: Model 2; 25 mg/kg rebastinib intraperitoneal + 20 mg/kg carboplatin intravenous. Here is the method: This study was conducted to obtain preclinical evidence of rebastinib/carboplatin combination efficacy in mesothelioma to support clinical development. The study was an in vivo evaluation of rebastinib single agent and in combination with carboplatin (SOC), in Low Passage Champions TUMORGRAFT® Models of Human Mesothelioma in immunocompromised mice.
Mesothelioma PDx models were studied each with 8 animals per group for total of 4 groups per model. The study endpoint was when the mean tumor volume of the control reaches 1500 mm^3 or 60 days max. Terminal tumors were be collected, fixed, and embedded.

For data set [2], the system named is breast cancer, ovarian cancer, and mesothelioma. As to the kind of experiment: Phase 1b/2 study of rebastinib in combination with carboplatin. The format is in vivo, human. Here is the method:
(§1) This is a Phase 1b/2 study where patients with mesothelioma are administered rebastinib in combination with carboplatin. The study follows a Simon 2-stage design at the MTD and R2PD. Safety and tolerability, PK and PD, and preliminary efficacy data was used to determine the RP2D. Upon determination of the RP2D or MTD, the Simon 2-stage design is initiated to dose evaluable patients using the RP2D or MTD across three indication-specific cohorts (breast cancer, ovarian cancer, and mesothelioma).
(§2) Each cohort initially enrolls up to 18 evaluable patients in the first stage. Patients must receive at least 1 dose of the combination and have 1 post-baseline assessment (including assessment of clinical progression), or be discontinued prior to the postbaseline disease assessment due to an AE at least possibly related to rebastinib, to be considered evaluable. Tumor response is assessed according to Response Evaluation Criteria in Solid Tumors (RECIST) Version 1.1. The decision to enroll patients beyond the first stage is based on response assessments obtained after the first post-dose response assessment of the last patient enrolled in the first stage of a cohort. […] If ≤4 responses are seen in a cohort, the cohort will be terminated. If >4 responses are seen prior to the last evaluable patient in the first stage, expanding the cohort may be triggered earlier. Enrollment in each cohort will pause between the first and second stage of the Simon two-stage for evaluation of response. Patients will receive study treatment until they develop progressive disease, experience unacceptable toxicity, or withdraw consent.
At a second time point, 22 patients were enrolled in the study (3 cohorts: 3 patients at rebastinib 50 mg BID+carboplatin AUC5, 14 patients at rebastinib 100 mg BID+carboplatin AUC5, and 5 pts at rebastinib 100 mg BID+carboplatin AUC6). The median age was 61 yrs. Most frequent diagnoses were breast cancer (n=5); neuroendocrine carcinoma (n=3); pancreatic adenocarcinoma, NSCLC, and cholangiocarcinoma (n=2 each). The median number of prior anti-cancer therapies was 4 (1, 12). Median duration of treatment was 8.4 weeks (0.9, 22.6).

A short description of data set [3]: Pharmacokinetics of rebastinib given with carboplatin. The data set is classed as in vivo. The settings on record: time point 2; 50 and 100 mg BID with carboplatin. Here is the method: as §1
In data set [4] the test system is triple negative breast cancer. Nature of the data set: Phase 1b/2 rebastinib + paclitaxel, Part 2 Cohort 1 (RECIST v1.1). The format is in vivo, human.
Source text: as §2, with “Upon determination of the RP2D, Part 2 is initiated to dose up to 165 evaluable patients using the RP2D across five indication-specific cohorts. A Simon's two-stage design is applied to Part 2 to further evaluate the safety, tolerability, and preliminary efficacy of rebastinib in combination with paclitaxel in triple-negative breast (Cohort 1), inflammatory breast (Cohort 2), ovarian (Cohort 3), endometrial adenocarcinoma (Cohort 4), and gynecologic carcinosarcoma (Cohort 5) cancers. Each” for “Each”, “progression)” for “progression),”

[5] abbreviates: time point 1, rebastinib and carboplatin combination.
Setting [6] is: both Cycle 3, Day 1 and Cycle 5, Day 1.

With `CNC(=O)c1cc(Oc2ccc(NC(=O)Nc3cc(C(C)(C)C)nn3-c3ccc4ncccc4c3)c(F)c2)ccn1` [rebastinib], the Tumor response result in the data set on mesothelioma is reported as “partial response”. The Tumor inhibition in data set [1] is listed as 38%. Also, the Tolerability result in data set [2] (time point 1, rebastinib 50 mg and 100 mg BID in combination with carboplatin AUC5) is “tolerated”; in data set [2] (time point 1, rebastinib 100 mg BID in combination with carboplatin AUC6 (3 patients)), “tolerated”. Moreover, the Muscular weakness result in data set [2] (setting [5]) was “No muscular weakness”. For the same compound, in data set [2] (setting [5]), the “Response in the dose escalation cohorts” value is “No response”. The “Partial response (PR)” value in data set [2] (time point 2, 22 patients enrolled, rebastinib 50 or 100 mg BID + carboplatin AUC5 or AUC6, preliminary) is 1. Further, in data set [2] (time point 2, rebastinib 100 mg BID with carboplatin AUC5, RP2D adjusted to 50 mg BID), the “Muscular weakness in the dose expansion cohort” value is on record as “increased frequency”. The “CBR at 6 weeks” value in data set [2] (time point 2, rebastinib + carboplatin, preliminary) was determined as 52%. Besides, the Rebastinib exposure entry in data set [3] is “dose proportional”. In addition, the “Patients with stable disease” value in data set [4] (Cycle 3, Day 1) was “one”; in data set [4] (setting [6]) it was “two”. Moreover, the “Patients with partial response” value in data set [4] (Cycle 8, Day 1) is reported as “one”; in data set [4] (setting [6]) it was “one”.
